These results are taken from patent publication US20240082424A1, “CLATHRATE IN WHICH EQUOL IS INCLUDED IN CYCLODEXTRIN, EQUOL-ABSORBENT COMPOSITION CONTAINING SAID CLATHRATE, AND PRODUCTION METHOD THEREFOR” (DAICEL CORPORATION, priority 2020, published 2024).

A short description of series [1]: Pharmacokinetics (PK) analysis by oral administration in rats. The series is classed as in vivo, Crl:CD (SD) rats. To be noted: single oral dose, rat plasma, 0.5% CMC suspension, equol clathrate 100 mg/kg, equol 6.3 mg/kg. How it is done: The equol clathrate A-1 prepared in <<Preparation of Equol Clathrate>> was subjected to pharmacokinetics (PK) analysis using 6-week-old Crl:CD (SD) rats by oral administration. As a control, pharmacokinetics (PK) analysis of equol (available from LC Laboratories) alone was also performed.
Specifically, the administered dose of the equol clathrate A-1 was 100 mg/kg, whereas the dose of equol (available from LC Laboratories) was 6.3 mg/kg, an amount considered to be equivalent to 100 mg/kg of the equol clathrate A-1.
The administered dose of the equol clathrate A-1 and the administered dose of equol were each administered as a single oral dose to 3 animals/group. The test substance used for the administration sample was suspended in 0.5% CMC aqueous solution, and the administered volume was 10 mL/kg.
PK was measured using plasma, and blood was collected at 0 min, 30 min, 1 h, 2 h, 6 h, 12 h, and 24 h. After 24 hours of blood collection, the rats were euthanized.
Note that, in Table 2, “Cmax” means maximum blood concentration, “Tmax” means time to reach Cmax, and “AUC0-24” means area.

Series [2] can be described thus: Solubility test (equol concentration dissolved in water). In kind it is physicochemical. To be noted: thermodynamic from solid; 300 mg dried product A-1 or 10 mg equol in 10 mL water, stirred at room temperature 2 hours, 0.2-μm filtered; read-out: concentration of equol in the solution (solubility in water). How it is done:
The dried product A-1 containing an equol clathrate prepared in <<Preparation of Equol Clathrate>> described above was subjected to a solubility test. As a control, a solubility test was performed on equol (available from LC Laboratories) alone.
Specifically, solubility tests were conducted under the following conditions.
300 mg of the dried product A-1 containing an equol clathrate was weighed and mixed with 10 mL of water. Then, the mixture was stirred at room temperature for 2 hours. This liquid was filtered through a 0.2-μm filter, resulting in a solution B-1 of the dried product A-1 containing an equol clathrate. The equol concentration of the solution B-1 was analyzed.
Meanwhile, 10 mg of equol (available from LC Laboratories) was weighed and subjected to the same operation, resulting in a liquid C-1 containing equol alone. The concentration of equol dissolved in the solution C-1 was analyzed.

In brackets after ≈: the same amount, converted by molar mass.

With `Oc1ccc([C@H]2COc3cc(O)ccc3C2)cc1` [equol], the Cmax in series [1] (Crl:CD (SD), read-out: Cmax (maximum blood concentration)) amounted to 41.6 ng/mL. The molecule further came in with an AUC0-24 (area) in series [1] of 363 ng·h/mL. Moreover, the solubility at 2 h in series [2] was 100 µg/mL (≈ 413 µM).
